The source of these data is paper PMC11487561 (ACS Chemical Neuroscience, 2024).

A word on the IC50: it is the concentration that inhibits the measured activity by half. Broadly, the CLint scaled is the capacity of the preparation to metabolise the compound, expressed as a volume cleared per time.

Data set [1] concerns the target Serotonin (5-Hydroxytryptamine) 5-HT2B (Homo sapiens, UniProt P41595). The experiment in a line: Lead Profiling Screen – Eurofins Panlabs. Format: binding. The following applies: read-out: % inh at 10 μM.
Another data set concerns GABAA, Muscimol, Central. The experiment in a line: Lead Profiling Screen – Eurofins Panlabs. The class given is binding, rat.
Data set [2] concerns GABAA, Flunitrazepam, Central. Nature of the data set: Lead Profiling Screen – Eurofins Panlabs. The class given is binding, rat.
A further data set addresses T1, Adrenergic α1B (Rattus norvegicus, UniProt P15823).
T1 construct: Eurofins Panlabs (contract screen)
Nature of the data set: Lead Profiling Screen – Eurofins Panlabs. The following applies: read-out: % inh at 10 μM. The class given is binding.

In another data set the test system is Sodium Channel, Site 2. Nature of the data set: Lead Profiling Screen – Eurofins Panlabs. Format: binding, rat.
In the next data set the target is T2, CYP 1A2 (Homo sapiens, UniProt P05177).
T2 construct: from tissue; host or cells: pooled human liver microsomes (according to the earlier reading)
Nature of the data set: P450 inhibition in pooled human liver microsomes. The following applies: pooled HLM, NADPH, CYP-specific probe substrates. Format: in vitro ADME. A general note: Liver microsomes are a subcellular fraction often used to study metabolism.

In data set [3] the target is Nicotinic Acetylcholine α1, Bungarotoxin (Homo sapiens, UniProt P02708+P07510+Q07001). Nature of the data set: Lead Profiling Screen – Eurofins Panlabs. Format: binding. The note with it: read-out: % inh at 10 μM.
A further data set deals with T3, Adrenergic β1 (Homo sapiens, UniProt P08588).
T3 construct: Eurofins Panlabs (contract screen)
Nature of the data set: Lead Profiling Screen – Eurofins Panlabs. Format: binding. The following applies: read-out: % inh at 10 μM.

The next data set concerns the target T4, Adrenergic α1D (Homo sapiens, UniProt P25100).
T4 construct: Eurofins Panlabs (contract screen)
The experiment in a line: Lead Profiling Screen – Eurofins Panlabs. The class given is binding. The note with it: read-out: % inh at 10 μM.

The target in data set [4] is Serotonin (5-Hydroxytryptamine) 5-HT3 (Homo sapiens, UniProt P46098). Nature of the data set: Lead Profiling Screen – Eurofins Panlabs. The class given is binding. The note with it: read-out: % inh at 10 μM.
The target of the next data set is T5, Estrogen ERα (Homo sapiens, UniProt P03372).
T5 construct: Eurofins Panlabs (contract screen)
The experiment in a line: Lead Profiling Screen – Eurofins Panlabs. The note with it: read-out: % inh at 10 μM. The class given is binding.

The test system of a further data set is Phorbol Ester. Nature of the data set: Lead Profiling Screen – Eurofins Panlabs. The class given is binding, mouse.
Data set [5] is described as follows: Intrinsic clearance in rat liver microsomes. Format: in vitro ADME. The protocol: Intrinsic Clearance in Rat and Human Liver Microsomes
The in vitro intrinsic clearance (CL int) was investigated in commercially obtained hepatic microsomes from rat and human donors using the substrate depletion (i.e., loss-of-parent vs. time, or t 1/2 method) approach with analyte detection via liquid chromatography-tandem mass spectrometry (LC-MS/MS). For each species, mean %parent remaining values at each time point were calculated from replicates raw data (analyte:IS peak area ratios) and used to determine in vitro t 1/2 and CLint.
Experiments were carried out using a robot-assisted (TECAN model Evo 200). Compound was incubated (1 µM final concentration) in buffer (100 mM potassium phosphate pH 7.4 with 3 mM MgCl2) containing hepatic microsomes (0.5 mg/mL final concentration) from multiple species, discretely, at 37 °C under constant orbital shaking. After 5 minutes (pre-incubation), reactions were initiated by addition of nicotinamide adenine dinucleotide phosphate (NADPH, 1 mM final concentration). At selected time intervals (0, 3, 7, 15, 25, and 45 minutes) post-addition of NADPH, aliquots (50 µL) were taken and placed into a 96-shallow-well plate containing ice cold acetonitrile (150 µL) with carbamazepine (IS, 50 nM). The plates were then centrifuged (3000 rcf at 4 °C) for 10 minutes. The supernatants were transferred to a new 96-shallow-well daughter plate and diluted (1:1 v/v) with water (Milli-Q filtered). The plates were then sealed in preparation for LC-MS/MS analysis (see below).
Raw LC-MS/MS peak area data generated from the assay samples were used to construct natural log-transformed %parent remaining vs. time plots (using t = 0 minute post-NADPH addition sample data as starting point set to 100%). In vitro compound half-life (t 1/2) values were obtained using the following […]
k is the slope from linear regression analysis of the natural log-transformed data (using means from Where all replicates at each time point). Resulting t 1/2 values were then used to calculate hepatic CLint values according to the following equation and with the use of species-specific scale-up factors for liver weight (grams) per total body weight (kg): […]
CLint = in vitro t1/2 x 0.5 mg microsomes x 1 gram liver x kg body wt aScale-up factors used are 45 (rat) and 20 (human).2
Predicted hepatic clearance (CLhep) was calculated using the following equation: […]
Qh represents hepatic blood flow (mL/min/kg): 21 for human, 70 for rat, and 90 for mouse.
Prepared samples were injected (10 µL each) onto an AB Sciex Triple Quad 4500 mass spectrometer system with an Agilent 1260 Infinity II pump and autosampler. Mass spectrometer conditions are described in Table S1. Quantitation of compounds was performed via AB Sciex Multiquant software using the raw analyte:IS peak area ratios. The typical detection range was 0.5 ng/mL to ≥ 5,000 ng/mL utilizing a quadratic equation regression with 1/x2 weighting. […]
Table S1. LC-MS/MS Conditions*
Mobile phase A 0.5% Formic Acid in Water
Mobile phase B 0.5% Formic Acid in Acetonitrile
Gradient Time % Mobile Phase B

T4 sequence (P25100 whole entry): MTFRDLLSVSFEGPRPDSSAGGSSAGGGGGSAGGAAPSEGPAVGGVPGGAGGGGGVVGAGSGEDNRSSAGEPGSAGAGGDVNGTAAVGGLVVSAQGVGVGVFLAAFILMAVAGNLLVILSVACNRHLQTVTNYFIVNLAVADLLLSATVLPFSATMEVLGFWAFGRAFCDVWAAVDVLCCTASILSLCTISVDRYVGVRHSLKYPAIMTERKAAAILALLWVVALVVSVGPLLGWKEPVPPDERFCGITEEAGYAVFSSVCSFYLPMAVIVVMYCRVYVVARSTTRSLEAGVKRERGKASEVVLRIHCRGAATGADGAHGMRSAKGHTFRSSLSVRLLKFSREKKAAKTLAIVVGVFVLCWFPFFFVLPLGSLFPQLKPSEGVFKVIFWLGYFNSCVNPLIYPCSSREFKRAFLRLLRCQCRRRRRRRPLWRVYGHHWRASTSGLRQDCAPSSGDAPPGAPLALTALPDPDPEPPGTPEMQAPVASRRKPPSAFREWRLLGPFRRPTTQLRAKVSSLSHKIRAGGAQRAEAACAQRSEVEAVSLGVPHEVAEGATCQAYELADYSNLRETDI
Nicotinic Acetylcholine α1, Bungarotoxin, sequence (P02708 21-457): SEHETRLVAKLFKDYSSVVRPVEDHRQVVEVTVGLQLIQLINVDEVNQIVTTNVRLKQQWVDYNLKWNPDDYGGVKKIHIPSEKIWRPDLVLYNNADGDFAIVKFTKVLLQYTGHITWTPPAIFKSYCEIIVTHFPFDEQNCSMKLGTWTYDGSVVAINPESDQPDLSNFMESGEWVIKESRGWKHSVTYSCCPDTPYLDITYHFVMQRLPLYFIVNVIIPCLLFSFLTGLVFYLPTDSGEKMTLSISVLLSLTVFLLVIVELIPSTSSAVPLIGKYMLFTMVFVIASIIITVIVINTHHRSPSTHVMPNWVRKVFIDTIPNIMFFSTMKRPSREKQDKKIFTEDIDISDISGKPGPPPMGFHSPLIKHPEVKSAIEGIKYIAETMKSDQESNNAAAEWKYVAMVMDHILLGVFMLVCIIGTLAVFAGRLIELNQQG
Nicotinic Acetylcholine α1, Bungarotoxin, sequence (Q07001 22-517): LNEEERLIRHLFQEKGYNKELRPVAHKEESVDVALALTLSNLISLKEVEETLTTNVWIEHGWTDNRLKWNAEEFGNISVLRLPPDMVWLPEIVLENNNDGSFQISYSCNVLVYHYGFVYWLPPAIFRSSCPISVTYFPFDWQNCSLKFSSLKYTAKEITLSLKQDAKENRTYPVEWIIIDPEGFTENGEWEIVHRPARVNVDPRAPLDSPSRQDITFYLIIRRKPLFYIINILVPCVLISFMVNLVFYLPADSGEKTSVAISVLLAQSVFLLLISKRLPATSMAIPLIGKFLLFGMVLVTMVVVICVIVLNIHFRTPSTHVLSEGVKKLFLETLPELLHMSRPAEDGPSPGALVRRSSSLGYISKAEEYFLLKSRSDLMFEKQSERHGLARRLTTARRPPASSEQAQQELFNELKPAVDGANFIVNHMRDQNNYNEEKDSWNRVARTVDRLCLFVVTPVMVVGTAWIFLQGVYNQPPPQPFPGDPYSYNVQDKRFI
Nicotinic Acetylcholine α1, Bungarotoxin, sequence (P07510 23-517): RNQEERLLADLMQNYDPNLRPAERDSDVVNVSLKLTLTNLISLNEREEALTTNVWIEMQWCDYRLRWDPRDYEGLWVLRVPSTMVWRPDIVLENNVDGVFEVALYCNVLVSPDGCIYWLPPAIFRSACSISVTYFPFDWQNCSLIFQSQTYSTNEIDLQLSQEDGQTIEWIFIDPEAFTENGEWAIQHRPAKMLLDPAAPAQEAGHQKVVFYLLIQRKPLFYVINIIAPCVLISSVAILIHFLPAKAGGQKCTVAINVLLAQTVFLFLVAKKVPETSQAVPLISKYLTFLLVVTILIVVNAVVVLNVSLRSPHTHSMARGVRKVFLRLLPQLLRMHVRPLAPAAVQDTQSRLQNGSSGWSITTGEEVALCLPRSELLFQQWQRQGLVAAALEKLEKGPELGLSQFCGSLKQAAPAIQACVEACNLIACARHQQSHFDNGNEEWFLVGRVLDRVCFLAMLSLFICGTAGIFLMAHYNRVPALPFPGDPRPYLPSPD
Nicotinic Acetylcholine α1, Bungarotoxin, sequence (P11230 24-501, further chain): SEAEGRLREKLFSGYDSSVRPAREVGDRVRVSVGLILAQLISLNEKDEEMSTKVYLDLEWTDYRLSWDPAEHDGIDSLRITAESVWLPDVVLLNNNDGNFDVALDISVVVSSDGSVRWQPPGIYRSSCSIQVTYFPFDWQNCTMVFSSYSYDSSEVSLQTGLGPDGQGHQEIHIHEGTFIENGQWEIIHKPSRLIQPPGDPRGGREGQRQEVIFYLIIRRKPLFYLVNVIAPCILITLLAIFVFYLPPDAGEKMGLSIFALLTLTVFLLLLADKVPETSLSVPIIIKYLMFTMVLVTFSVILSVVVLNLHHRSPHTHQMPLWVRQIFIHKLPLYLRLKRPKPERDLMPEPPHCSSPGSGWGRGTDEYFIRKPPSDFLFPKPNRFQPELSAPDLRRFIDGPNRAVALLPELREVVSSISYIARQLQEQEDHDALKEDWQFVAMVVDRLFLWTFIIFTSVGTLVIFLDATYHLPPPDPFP
T2 sequence (P05177 whole entry): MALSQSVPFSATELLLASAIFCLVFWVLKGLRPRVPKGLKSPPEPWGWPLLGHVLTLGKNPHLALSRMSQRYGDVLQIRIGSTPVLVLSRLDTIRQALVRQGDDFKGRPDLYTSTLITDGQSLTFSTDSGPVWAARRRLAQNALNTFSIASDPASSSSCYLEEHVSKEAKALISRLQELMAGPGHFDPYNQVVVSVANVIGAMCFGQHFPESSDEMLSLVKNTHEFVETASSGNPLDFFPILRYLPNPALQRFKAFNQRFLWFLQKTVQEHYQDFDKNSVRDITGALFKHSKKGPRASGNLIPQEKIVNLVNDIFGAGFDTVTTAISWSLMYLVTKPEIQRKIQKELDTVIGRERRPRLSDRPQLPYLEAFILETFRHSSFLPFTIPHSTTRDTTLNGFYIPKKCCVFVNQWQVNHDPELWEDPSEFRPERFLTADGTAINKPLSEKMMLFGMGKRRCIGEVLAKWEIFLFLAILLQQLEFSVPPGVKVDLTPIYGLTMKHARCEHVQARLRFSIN
T3 sequence (P08588 whole entry): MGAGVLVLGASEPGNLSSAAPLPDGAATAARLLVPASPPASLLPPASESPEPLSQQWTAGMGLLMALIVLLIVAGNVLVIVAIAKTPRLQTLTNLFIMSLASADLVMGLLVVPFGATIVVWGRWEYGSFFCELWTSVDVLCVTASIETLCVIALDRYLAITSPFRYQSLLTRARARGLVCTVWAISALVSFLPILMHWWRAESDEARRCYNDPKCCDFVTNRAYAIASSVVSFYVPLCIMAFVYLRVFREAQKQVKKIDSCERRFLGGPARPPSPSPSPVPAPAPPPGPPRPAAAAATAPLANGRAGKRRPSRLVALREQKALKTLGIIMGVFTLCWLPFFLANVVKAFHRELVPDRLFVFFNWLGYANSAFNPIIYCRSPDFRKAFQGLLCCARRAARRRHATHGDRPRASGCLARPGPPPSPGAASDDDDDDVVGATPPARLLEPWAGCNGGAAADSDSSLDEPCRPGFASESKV
T5 sequence (P03372 whole entry): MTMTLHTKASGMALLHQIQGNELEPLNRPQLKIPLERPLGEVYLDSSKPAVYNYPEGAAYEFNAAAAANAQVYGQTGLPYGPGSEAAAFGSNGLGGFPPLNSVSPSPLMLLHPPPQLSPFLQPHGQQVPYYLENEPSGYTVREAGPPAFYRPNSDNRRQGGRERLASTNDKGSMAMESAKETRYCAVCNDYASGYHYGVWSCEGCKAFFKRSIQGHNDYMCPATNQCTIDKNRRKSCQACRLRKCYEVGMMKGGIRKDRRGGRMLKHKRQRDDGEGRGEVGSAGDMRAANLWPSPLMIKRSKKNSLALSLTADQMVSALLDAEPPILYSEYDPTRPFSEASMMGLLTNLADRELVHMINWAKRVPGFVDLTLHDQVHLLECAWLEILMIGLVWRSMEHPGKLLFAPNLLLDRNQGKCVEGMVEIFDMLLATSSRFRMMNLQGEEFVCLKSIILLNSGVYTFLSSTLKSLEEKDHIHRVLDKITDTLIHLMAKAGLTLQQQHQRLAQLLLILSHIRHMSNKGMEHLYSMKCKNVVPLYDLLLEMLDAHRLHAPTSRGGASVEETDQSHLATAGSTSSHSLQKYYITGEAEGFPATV
Serotonin (5-Hydroxytryptamine) 5-HT2B, sequence (P41595 whole entry): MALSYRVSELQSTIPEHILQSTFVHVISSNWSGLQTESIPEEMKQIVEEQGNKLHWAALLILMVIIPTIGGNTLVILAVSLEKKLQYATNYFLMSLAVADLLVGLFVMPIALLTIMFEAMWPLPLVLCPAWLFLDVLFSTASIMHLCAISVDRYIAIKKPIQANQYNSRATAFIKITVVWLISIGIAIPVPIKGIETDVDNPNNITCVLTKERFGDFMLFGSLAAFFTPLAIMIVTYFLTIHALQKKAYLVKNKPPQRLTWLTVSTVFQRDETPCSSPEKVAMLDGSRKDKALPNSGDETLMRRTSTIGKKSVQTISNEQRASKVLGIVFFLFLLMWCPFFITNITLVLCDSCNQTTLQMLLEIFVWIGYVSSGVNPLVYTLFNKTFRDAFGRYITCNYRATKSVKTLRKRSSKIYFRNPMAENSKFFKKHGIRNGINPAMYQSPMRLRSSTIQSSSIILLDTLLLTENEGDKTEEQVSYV

In the case of `Cc1nc(C)c2c(n1)sc1c(NCc3ccc(C(C)(C)O)cc3)nccc12` [22g], the inhibition at 10 µM in data set [1] was 16%; at Adrenergic α1B, 7%; in data set [3], -8%; at Adrenergic β1, 3%; on Adrenergic α1D, 5%; in data set [4], -20%. Besides, at Estrogen ERα, the inhibition at 10 µM was -8%. Also, the “% inh at 10 μM” value is listed as 1% with GABAA, Muscimol, Central; 13% in [2]; 3% with Sodium Channel, Site 2; -1% with Phorbol Ester. This molecule displayed an IC50 on CYP 1A2 of 23 µM. Also, the CLint scaled at 1 µM in data set [5] (pH 7.4, rat liver microsomes) was 78 mL/min/kg. Further, in data set [5] (predicted hepatic clearance from microsomal CLint), the “CLhep, rat” value is reported as 37 mL/min/kg.
